The values that follow come from EP0955294B1, “Imidazolyl-alkenoic acid” (SMITHKLINE BEECHAM CORPORATION, priority 1989, dated 1990).

Like-named read-outs stand apart in the source and are kept apart here.

The test system of assay [1] is pressor response to exogenous angiotensin II. Kind of assay: inhibition of pressor response to angiotensin II in conscious rats. Format: in vivo. The following applies: Rattus norvegicus, dose producing 50% inhibition of the control response to angiotensin II, read-out: IC50 (the source's name). The procedure: (§1) Angiotensin II antagonist activity of the compounds of Formula (I) is assessed by in vitro and in vivo methods. In vitro antagonist activity is determined by the ability of the compounds to compete with ^125I-angiotensin II for binding to vascular angiotensin It receptors and by their ability to antagonize the contractile response to angiotensin II in the isolated rabbit aorta. In vivo activity is evaluated by the efficacy of the compounds to inhibit the pressor response to exogenous angiotensin II in conscious rats and to lower blood pressure in a rat model of […] hypertension.
Rats are prepared with indwelling femoral arterial and venous catheters and a stomach tube (Gellai et al., Kidney Int. 15:419, 1979). Two to three days following surgery the rats are placed in a restrainer and blood pressure is continuously monitored from the arterial catheter with a pressure transducer and recorded on a polygraph. The change in mean arterial pressure in response to intravenous injections of […] angiotensin II is compared at various time points prior to and following the administration of the compounds intravenously or orally at doses of 0.1 to 300 mg/kg. The dose of compound needed to produce 50% inhibition of the control response to angiotensin II (IC50) is used to estimate the potency of the compounds.

The subject of assay [2] is conscious rats made renin-dependent hypertensive. Kind of assay: antihypertensive activity in renal artery ligated (renin-dependent hypertensive) rats. The following applies: dose needed to reduce mean arterial pressure by 30 mm Hg. Format: in vivo. The procedure:
as §1
The antihypertensive activity of the compounds is measured by their ability to reduce mean arterial pressure in conscious rats made renin-dependent hypertensive by ligation of the left renal artery (Cangiano et al., J. Pharmacol. Exp. Ther. 208:310, 1979). Renal artery ligated rats are prepared with indwelling catheters as described above. Seven to eight days following renal artery ligation, the time at which plasma renin levels are highest, the conscious rats are placed in restrainers and mean arterial pressure is continuously recorded prior to and following the administration of the compounds intravenously or orally. The dose of compound needed to reduce mean arterial pressure by 30 mm Hg (IC50) is used as an estimate of potency.

`CCCCc1ncc(/C=C(\Cc2cccs2)C(=O)O)n1Cc1ccccc1Cl` [Example 1, (E)-3-[2-n-Butyl-1-{(2-chlorophenyl)methyl}-1H-imidazol-5-yl]-2-(2-thienyl)methyl-2-propenoic Acid]: the ED50 amounted to 3.6 mg/kg in assay [1] (iv, i.v.) and 44 mg/kg in assay [1] (po, orally). The ED (30 mm Hg) in assay [2] (Rattus norvegicus, po, orally, read-out: IC50) was found to be 8 mg/kg. The compound also showed an IC50 in assay [2] (i.v.) of 1.80 mg/kg.
